Assay results from patent US9695155B2, “Herbicidal substituted pyrimidinyloxy benzene compounds” (E. I. DU PONT DE NEMOURS AND COMPANY, priority 2013, dated 2017).

Experiments:
large (Lg) crabgrass [1] = assay: Test A preemergence; assay type: in vivo, Digitaria sanguinalis; conditions: for Crabgrass, Large plant response rating (0 to 100 scale): 125 g ai/ha; for Crabgrass, Large plant response rating: 500 g ai/ha, 0 to 100 scale where 0 is no effect and 100 is complete control
Method in brief: (§1)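 Greenhouse pot test, loam/sand soil. Formulation: non-phytotoxic solvent mix plus surfactant. Pre: directed spray onto soil after sowing. Post: plants at 1–2 leaf, 2–10 cm. Rated visually vs untreated controls at ~10 d, 0 (no effect) to 100 (complete control).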

sedge, umbrella = assay: Test B flooded paddy test; assay type: in vivo, Cyperus difformis; conditions: Flood, 250 g ai/ha; 0 to 100 scale where 0 is no effect and 100 is complete control
Method in brief: (§2)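 Seedlings are raised to two leaves, flooded to a depth of 3 cm and dosed by adding the compound to the floodwater. Water level is kept constant, and plants are scored visually versus controls 13–15 days later (0 = no effect, 100 = complete control).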

pigweed [2] = assay: Test A preemergence; assay type: in vivo, Amaranthus retroflexus; conditions: for Pigweed plant response rating (0 to 100 scale): 125 g ai/ha
Method in brief: as §1

corn [3] = assay: Test A preemergence; assay type: in vivo, Zea mays; conditions: for Corn plant response rating (0 to 100 scale): 125 g ai/ha; for Corn plant response rating: 500 g ai/ha, 0 to 100 scale where 0 is no effect and 100 is complete control
Method in brief: as §1

velvetleaf [4] = assay: Test A postemergence; assay type: in vivo, Abutilon theophrasti; conditions: for Velvetleaf plant response rating: 125 g ai/ha
Method in brief: as §1

barnyardgrass [5] = assay: Test A preemergence; assay type: in vivo, Echinochloa crus-galli; conditions: for Barnyardgrass plant response rating (0 to 100 scale, 0 is no effect, 100 is complete control): 125 g ai/ha; for Barnyardgrass plant response rating: 500 g ai/ha, 0 to 100 scale where 0 is no effect and 100 is complete control
Method in brief: as §1

large (Lg) crabgrass [6] = assay: Test A postemergence; assay type: in vivo, Digitaria sanguinalis; conditions: for Crabgrass, Large plant response rating: 125 g ai/ha
Method in brief: as §1

Heteranthera limosa = assay: Test B flooded paddy test; assay type: in vivo; conditions: Flood, 250 g ai/ha; 0 to 100 scale where 0 is no effect and 100 is complete control
Method in brief: as §2

morningglory [7] = assay: Test A postemergence; assay type: in vivo, Ipomoea spp.; conditions: for Morningglory plant response rating: 125 g ai/ha
Method in brief: as §1

barnyardgrass [8] = assay: Test B flooded paddy test; assay type: in vivo, Echinochloa crus-galli; conditions: Flood, 250 g ai/ha; 0 to 100 scale where 0 is no effect and 100 is complete control
Method in brief: as §2

giant foxtail [9] = assay: Test A preemergence; assay type: in vivo, Setaria faberii; conditions: for Foxtail, Giant plant response rating (0 to 100 scale): 125 g ai/ha
Method in brief: as §1

wheat [10] = assay: Test A preemergence; assay type: in vivo, Triticum aestivum; conditions: for Wheat plant response rating (0 to 100 scale): 125 g ai/ha
Method in brief: as §1

morningglory [11] = assay: Test A preemergence; assay type: in vivo, Ipomoea spp.; conditions: for Morningglory plant response rating (0 to 100 scale): 125 g ai/ha
Method in brief: as §1

corn [12] = assay: Test A postemergence; assay type: in vivo, Zea mays; conditions: for Corn plant response rating: 125 g ai/ha
Method in brief: as §1

velvetleaf [13] = assay: Test A preemergence; assay type: in vivo, Abutilon theophrasti; conditions: for Velvetleaf plant response rating (0 to 100 scale): 125 g ai/ha
Method in brief: as §1

barnyardgrass [14] = assay: Test A postemergence; assay type: in vivo, Echinochloa crus-galli; conditions: for Barnyardgrass plant response rating: 125 g ai/ha
Method in brief: as §1

giant foxtail [15] = assay: Test A postemergence; assay type: in vivo, Setaria faberii; conditions: for Foxtail, Giant plant response rating: 125 g ai/ha
Method in brief: as §1

pigweed [16] = assay: Test A postemergence; assay type: in vivo, Amaranthus retroflexus; conditions: for Pigweed plant response rating: 125 g ai/ha
Method in brief: as §1

wheat [17] = assay: Test A postemergence; assay type: in vivo, Triticum aestivum; conditions: for Wheat plant response rating: 125 g ai/ha
Method in brief: as §1

rice = assay: Test B flooded paddy test; assay type: in vivo, Oryza sativa; conditions: Flood, 250 g ai/ha; 0 to 100 scale where 0 is no effect and 100 is complete control
Method in brief: as §2

[18] = 500 g ai/ha, 0 to 100 scale where 0 is no effect and 100 is complete control
[19] = 0 to 100 scale where 0 is no effect and 100 is complete control
[20] = 1000 g ai/ha, 0 to 100 scale, 0 no effect, 100 complete control
[21] = 1000 g ai/ha, 0 to 100 scale, 0 no effect, 100 complete control, approx. 10 days

In the case of `O=Cc1cccc(Oc2ncc(Br)cn2)c1-n1cc(Br)cn1` [Compound 230], the “Crabgrass, Large plant response rating (0 to 100 scale)” value (large (Lg) crabgrass [1]) is reported as 0, the “Crabgrass, Large plant response rating” value (large (Lg) crabgrass [1]) is reported as 0 and the “Plant response rating, Sedge, Umbrella” value (sedge, umbrella) is reported as 50. For the same molecule, the “Pigweed plant response rating (0 to 100 scale)” value (pigweed [2]) was 0, the “Pigweed plant response rating” value (pigweed [2]; [18]) was 70 and the “Corn plant response rating (0 to 100 scale)” value (corn [3]) was 0. For the same molecule, the “Corn plant response rating” value (corn [3]) was 0, the “Velvetleaf plant response rating” value (velvetleaf [4]; [19]) was 0 and the “Plant response rating, Velvetleaf” value (velvetleaf [4]; [18]) was 30. The “Barnyardgrass plant response rating (0 to 100 scale, 0 is no effect, 100 is complete control)” value (barnyardgrass [5]) was 0, the “Barnyardgrass plant response rating” value (barnyardgrass [5]) was 0 and the “Crabgrass, Large plant response rating” value (large (Lg) crabgrass [6]; [19]) was 0. The “Plant response rating, Crabgrass, Large” value (large (Lg) crabgrass [6]; [18]) was 10, the “Plant response rating, Ducksalad” value (Heteranthera limosa) was 20 and the “Morningglory plant response rating” value (morningglory [7]; [19]) was 0. For the same molecule, the “Plant response rating, Morningglory” value (morningglory [7]; [18]) was 0, the “Plant response rating, Barnyardgrass” value (barnyardgrass [8]) was 20 and the “Foxtail, Giant plant response rating (0 to 100 scale)” value (giant foxtail [9]) was 0. For the same molecule, the “Foxtail, Giant plant response rating” value (giant foxtail [9]; [18]) was 0, the “Wheat plant response rating (0 to 100 scale)” value (wheat [10]) was 0 and the “Wheat plant response rating” value (wheat [10]; [18]) was 0. For the same molecule, the “Morningglory plant response rating (0 to 100 scale)” value (morningglory [11]) was 0, the “Morningglory plant response rating” value (morningglory [11]; [18]) was 0 and the “Corn plant response rating” value (corn [12]; [19]) was 0. The “Plant response rating, Corn” value (corn [12]; [18]) was 0, the “Velvetleaf plant response rating (0 to 100 scale)” value (velvetleaf [13]) was 0 and the “Velvetleaf plant response rating” value (velvetleaf [13]; [18]) was 0. For the same molecule, the “Barnyardgrass plant response rating” value (barnyardgrass [14]; [19]) was 0, the “Plant response rating, Barnyardgrass” value (barnyardgrass [14]; [18]) was 20 and the “Foxtail, Giant plant response rating” value (giant foxtail [15]; [19]) was 0. For the same molecule, the “Plant response rating, Foxtail, Giant” value (giant foxtail [15]; [18]) was 20, the “Pigweed plant response rating” value (pigweed [16]; [19]) was 30 and the “Plant response rating, Pigweed” value (pigweed [16]; [18]) was 60. For the same molecule, the “Wheat plant response rating” value (wheat [17]; [19]) was 0, the “Plant response rating, Wheat” value (wheat [17]; [18]) was 0 and the “Plant response rating, Rice” value (rice) was 35.
For `C=C(C)c1cn(-c2c(Br)cccc2Oc2ncc(Cl)cn2)nn1` [Compound 114], the “Plant response rating, Crabgrass, Large” value (large (Lg) crabgrass [1]; [20]) was 100, the “Plant response rating, Sedge, Umbrella” value (sedge, umbrella) was 30 and the “Pigweed plant response rating” value (pigweed [2]; [21]) was 100. For the same molecule, the “Plant response rating, Corn” value (corn [3]; [20]) was 20, the “Plant response rating, Velvetleaf” value (velvetleaf [4]; [20]) was 100 and the “Plant response rating, Barnyardgrass” value (barnyardgrass [5]; [20]) was 90. The “Plant response rating, Crabgrass, Large” value (large (Lg) crabgrass [6]; [20]) was 90, the “Plant response rating, Ducksalad” value (Heteranthera limosa) was 50 and the “Plant response rating, Morningglory” value (morningglory [7]; [20]) was 80. For the same molecule, the “Plant response rating, Barnyardgrass” value (barnyardgrass [8]) was 0, the “Foxtail, Giant plant response rating” value (giant foxtail [9]; [21]) was 100 and the “Wheat plant response rating” value (wheat [10]; [21]) was 40. The “Morningglory plant response rating” value (morningglory [11]; [21]) was 10, the “Plant response rating, Corn” value (corn [12]; [20]) was 70 and the “Velvetleaf plant response rating” value (velvetleaf [13]; [21]) was 100. For the same molecule, the “Plant response rating, Barnyardgrass” value (barnyardgrass [14]; [20]) was 100, the “Plant response rating, Foxtail, Giant” value (giant foxtail [15]; [20]) was 90 and the “Plant response rating, Pigweed” value (pigweed [16]; [20]) was 100. The “Plant response rating, Wheat” value (wheat [17]; [20]) was 60 and the “Plant response rating, Rice” value (rice) was 0.
`N#Cc1cccc(Oc2ncc(Cl)cn2)c1-n1cccn1` [Compound 208] was tested, and the “Crabgrass, Large plant response rating (0 to 100 scale)” value (large (Lg) crabgrass [1]) was 20, the “Crabgrass, Large plant response rating” value (large (Lg) crabgrass [1]) was 100 and the “Plant response rating, Sedge, Umbrella” value (sedge, umbrella) was 0. For the same molecule, the “Pigweed plant response rating (0 to 100 scale)” value (pigweed [2]) was 30, the “Pigweed plant response rating” value (pigweed [2]; [18]) was 100 and the “Corn plant response rating (0 to 100 scale)” value (corn [3]) was 0. The “Corn plant response rating” value (corn [3]) was 0, the “Velvetleaf plant response rating” value (velvetleaf [4]; [19]) was 40 and the “Plant response rating, Velvetleaf” value (velvetleaf [4]; [18]) was 60. For the same molecule, the “Barnyardgrass plant response rating (0 to 100 scale, 0 is no effect, 100 is complete control)” value (barnyardgrass [5]) was 0, the “Barnyardgrass plant response rating” value (barnyardgrass [5]) was 70 and the “Crabgrass, Large plant response rating” value (large (Lg) crabgrass [6]; [19]) was 0. The “Plant response rating, Crabgrass, Large” value (large (Lg) crabgrass [6]; [18]) was 20, the “Plant response rating, Ducksalad” value (Heteranthera limosa) was 0 and the “Morningglory plant response rating” value (morningglory [7]; [19]) was 20. The “Plant response rating, Morningglory” value (morningglory [7]; [18]) was 80, the “Plant response rating, Barnyardgrass” value (barnyardgrass [8]) was 0 and the “Foxtail, Giant plant response rating (0 to 100 scale)” value (giant foxtail [9]) was 20. The “Foxtail, Giant plant response rating” value (giant foxtail [9]; [18]) was 90, the “Wheat plant response rating (0 to 100 scale)” value (wheat [10]) was 0 and the “Wheat plant response rating” value (wheat [10]; [18]) was 20. The “Morningglory plant response rating (0 to 100 scale)” value (morningglory [11]) was 0, the “Morningglory plant response rating” value (morningglory [11]; [18]) was 30 and the “Corn plant response rating” value (corn [12]; [19]) was 0. For the same molecule, the “Plant response rating, Corn” value (corn [12]; [18]) was 20, the “Velvetleaf plant response rating (0 to 100 scale)” value (velvetleaf [13]) was 0 and the “Velvetleaf plant response rating” value (velvetleaf [13]; [18]) was 50. The “Barnyardgrass plant response rating” value (barnyardgrass [14]; [19]) was 0, the “Plant response rating, Barnyardgrass” value (barnyardgrass [14]; [18]) was 0 and the “Foxtail, Giant plant response rating” value (giant foxtail [15]; [19]) was 0. The “Plant response rating, Foxtail, Giant” value (giant foxtail [15]; [18]) was 20, the “Pigweed plant response rating” value (pigweed [16]; [19]) was 30 and the “Plant response rating, Pigweed” value (pigweed [16]; [18]) was 100. The “Wheat plant response rating” value (wheat [17]; [19]) was 0, the “Plant response rating, Wheat” value (wheat [17]; [18]) was 0 and the “Plant response rating, Rice” value (rice) was 0.
